In ChEMBL document CHEMBL1165880, “'On water' assisted synthesis and biological evaluation of nitrogen and sulfur containing hetero-1,4-naphthoquinones as potent antifungal and antibacterial agents” (2010):
≈ marks a conversion by molar mass, not a printed value. Calls of active or inactive are those of the source. The calls are words filed in the database; no cut-off is given here.

How the values were obtained:
Pseudomonas aeruginosa = experiment: Antibacterial activity against Pseudomonas aeruginosa […] at 50 ug/ml after 24 hrs by micro broth dilution method; format: functional, organism-based
Aspergillus fumigatus = experiment: Antifungal activity against Aspergillus fumigatus after 72 hrs by micro broth dilution method; format: functional
Escherichia coli = experiment: Antibacterial activity against Escherichia coli after 24 hrs by micro broth dilution method; format: functional
Cryptococcus neoformans = experiment: Antifungal activity against Cryptococcus neoformans after 72 hrs by micro broth dilution method; format: functional
Staphylococcus aureus = experiment: Antibacterial activity against Staphylococcus aureus ATCC 25923 after 24 hrs by micro broth dilution method; format: functional
Candida parapsilosis = experiment: Antifungal activity against Candida parapsilosis ATCC 22019 after 48 hrs by micro broth dilution method; format: functional
Candida albicans = experiment: Antifungal activity against Candida albicans after 48 hrs by micro broth dilution method; format: functional
[1] = tested on: Trichophyton mentagrophytes; experiment: Antifungal activity against Trichophyton mentagrophytes after 96 hrs by micro broth dilution method; format: functional
Klebsiella pneumoniae = experiment: Antibacterial activity against Klebsiella pneumoniae ATCC 27736 after 24 hrs by micro broth dilution method; format: functional

Row | MIC50 (Aspergillus fumigatus) | MIC50 (Escherichia coli) | MIC50 (Cryptococcus neoformans) | MIC50 (Staphylococcus aureus) | MIC50 (Candida parapsilosis) | MIC50 (Candida albicans) | MIC50 [1] | MIC50 (Klebsiella pneumoniae) | SMILES | Activity (Pseudomonas aeruginosa)
1 | 87.8 µM (≈ 25 µg/mL) | 87.8 µM (≈ 25 µg/mL) | 11 µM (≈ 3.12 µg/mL) | 43.9 µM (≈ 12.5 µg/mL) | 43.9 µM (≈ 12.5 µg/mL) | 11 µM (≈ 3.12 µg/mL) | 1.37 µM (≈ 0.39 µg/mL) | 21.9 µM (≈ 6.25 µg/mL) | O=C1C(Cl)=C(SCCS)C(=O)c2ccccc21 | inactive
2 | 41.9 µM (≈ 12.5 µg/mL) | 83.8 µM (≈ 25 µg/mL) | 10.4 µM (≈ 3.12 µg/mL) | 83.8 µM (≈ 25 µg/mL) | 20.9 µM (≈ 6.26 µg/mL) | 10.4 µM (≈ 3.12 µg/mL) | 1.31 µM (≈ 0.391 µg/mL) | 83.8 µM (≈ 25 µg/mL) | O=C1C(Cl)=C(NNc2ccccc2)C(=O)c2ccccc21 | inactive
3 | > 161 µM | 40.2 µM (≈ 12.5 µg/mL) | 40.2 µM (≈ 12.5 µg/mL) | 40.2 µM (≈ 12.5 µg/mL) | > 161 µM | > 161 µM | > 161 µM | 161 µM (≈ 50 µg/mL) | CCOC(=O)CSC1=C(Cl)C(=O)c2ccccc2C1=O | 
4 | 24.1 µM (≈ 6.25 µg/mL) | 24.1 µM (≈ 6.25 µg/mL) | 24.1 µM (≈ 6.25 µg/mL) | 3 µM (≈ 0.778 µg/mL) | 6.02 µM (≈ 1.56 µg/mL) | 3 µM (≈ 0.778 µg/mL) | 3 µM (≈ 0.778 µg/mL) | 3 µM (≈ 0.778 µg/mL) | Cn1c(O)csc2c(=O)c3ccccc3c(=O)c1=2 | inactive
5 | 173 µM (≈ 50 µg/mL) | 173 µM (≈ 50 µg/mL) | > 73.4 µM | 173 µM (≈ 50 µg/mL) | 173 µM (≈ 50 µg/mL) | > 173 µM | > 173 µM | 173 µM (≈ 50 µg/mL) | CN1CCN(C2=CC(=O)c3c(O)ccc(O)c3C2=O)CC1 | inactive
6 | 43.1 µM (≈ 12.5 µg/mL) | 43.1 µM (≈ 12.5 µg/mL) | 21.5 µM (≈ 6.26 µg/mL) | 43.1 µM (≈ 12.5 µg/mL) | 21.5 µM (≈ 6.26 µg/mL) | 5.38 µM (≈ 1.56 µg/mL) | 1.34 µM (≈ 0.39 µg/mL) | 21.5 µM (≈ 6.26 µg/mL) | CN1CCN(C2=C(Cl)C(=O)c3ccccc3C2=O)CC1 | inactive
7 | 22.9 µM (≈ 6.25 µg/mL) | 5.71 µM (≈ 1.56 µg/mL) | 11.4 µM (≈ 3.12 µg/mL) | 11.4 µM (≈ 3.12 µg/mL) | 45.7 µM (≈ 12.5 µg/mL) | 22.9 µM (≈ 6.25 µg/mL) | 5.71 µM (≈ 1.56 µg/mL) | 11.4 µM (≈ 3.12 µg/mL) | Cc1sc2c(=O)c3ccccc3c(=O)c=2n(C)c1O | 
8 |  | 1.07 µM (≈ 0.5 µg/mL) |  | 0.53 µM (≈ 0.248 µg/mL) |  |  |  | 2.14 µM (≈ 1 µg/mL) | NC[C@H]1O[C@H](O[C@H]2[C@H](O)[C@@H](O[C@H]3O[C@H](CO)[C@@H](O)[C@H](N)[C@H]3O)[C@H](N)C[C@@H]2N)[C@H](N)C[C@@H]1O [TOBRAMYCIN] | 
9 | > 177 µM | 88.6 µM (≈ 25 µg/mL) | > 177 µM | 177 µM (≈ 50 µg/mL) | > 177 µM | 177 µM (≈ 50 µg/mL) | 177 µM (≈ 50 µg/mL) | 177 µM (≈ 50 µg/mL) | O=C1C(=O)c2ccccc2C(O)=C1Sc1ccccc1 | inactive
10 | 177 µM (≈ 50 µg/mL) | 44.2 µM (≈ 12.5 µg/mL) | 88.5 µM (≈ 25 µg/mL) | 44.2 µM (≈ 12.5 µg/mL) | 88.5 µM (≈ 25 µg/mL) | 88.5 µM (≈ 25 µg/mL) | 5.52 µM (≈ 1.56 µg/mL) | 22.1 µM (≈ 6.25 µg/mL) | O=C(O)CSC1=C(Cl)C(=O)c2ccccc2C1=O | inactive
11 |  | 33 µM (≈ 16 µg/mL) |  | 4.13 µM (≈ 2 µg/mL) |  |  |  | 66 µM (≈ 32 µg/mL) | NC[C@H]1O[C@H](O[C@H]2[C@H](O)[C@@H](O[C@H]3O[C@H](CO)[C@@H](O)[C@H](N)[C@H]3O)[C@H](N)C[C@@H]2N)[C@H](O)[C@@H](O)[C@@H]1O [KANAMYCIN] | 
12 |  |  | 0.84 µM (≈ 0.776 µg/mL) |  |  | 0.42 µM (≈ 0.388 µg/mL) | 1.69 µM (≈ 1.56 µg/mL) |  | C[C@@H]1[C@H](O)[C@@H](C)/C=C/C=C/C=C/C=C/C=C/C=C/C=C/[C@H](O[C@@H]2O[C@H](C)[C@@H](O)[C@H](N)[C@@H]2O)C[C@@H]2O[C@](O)(C[C@@H](O)C[C@@H](O)[C@H](O)CC[C@@H](O)C[C@@H](O)CC(=O)O[C@H]1C)C[C@H](O)[C@H]2C(=O)O [AMPHOTERICIN B] | 

Row | SMILES | MIC50 (Aspergillus fumigatus) | MIC50 (Escherichia coli) | MIC50 (Cryptococcus neoformans) | MIC50 (Staphylococcus aureus) | MIC50 (Candida parapsilosis) | MIC50 (Candida albicans) | MIC50 [1] | MIC50 (Klebsiella pneumoniae) | Activity (Pseudomonas aeruginosa)
13 | O=C1C(Cl)=C(N2CCOCC2)C(=O)c2ccccc21 [2-Chloro-3-morpholino-1,4-naphthoquinone] | 90.1 µM (≈ 25 µg/mL) | 45 µM (≈ 12.5 µg/mL) | 22.5 µM (≈ 6.25 µg/mL) | 180 µM (≈ 50 µg/mL) | 22.5 µM (≈ 6.25 µg/mL) | 45 µM (≈ 12.5 µg/mL) | 2.81 µM (≈ 0.78 µg/mL) | 22.5 µM (≈ 6.25 µg/mL) | inactive
